Results: US11149027B2, “Heterocyclic compound” (Sumitomo Chemical Company, Limited, priority 2016, dated 2021)

How the values were obtained:
[1] = system: houseflies (Musca domestica); test: Test Example 10: treated filter paper with sucrose, houseflies; assay type: in vivo; settings: 500 ppm, 0.7 ml on filter paper with sucrose, female adult, after 24 hours
Procedure: (§1) Test compounds are made to a formulation according to a similar method to that described in the Formulation example 5, and thereto is added water to prepare a diluted solution containing a prescribed concentration of the test compound.
A filter paper having a diameter of 5.5 cm in diameter is spread on the bottom of the cup, and 30 mg of sucrose is placed on the filter paper, and then 0.7 ml of the diluted solutions are added dropwise to the filter paper. Ten (10) houseflies (Musca domestica) female adult are released into the cup. After 24 hours, the number of the died insects is counted, and the mortality of insects is calculated by the following equation. Mortality (%)=(Number of died insects/test insects)×100

[2] = system: brown planthoppers (Nilaparvata lugens); test: Test Example 4: root uptake by rice seedling from diluted solution, brown planthoppers; assay type: in vivo; settings: 1000 ppm, 5 mL diluted solution under rice seedling, third instar larvae released after 7 days, examined after 6 days
Procedure: as §1
The diluted solution 5 mL is added to one cup, and Rice (Oryza sativa) seedling (on the developmental stage of the second true leaf) is planted in the other cup with a hole on the bottom and the other cup is placed on the cup. After 7 days, 20 brown planthoppers (Nilaparvata lugens) at the third instar larval stage are released onto the seedling. After 6 days, the number of the surviving insects is examined, and the mortality is calculated by the following equation. Mortality (%)={1−Number of surviving insects/20}×100

| Structure (SMILES) | mortality of insects [1] [%] | mortality of insects [2] [%] |
| --- | --- | --- |
| CCS(=O)(=O)c1cccnc1-c1ccc(-n2ccc(C(F)(F)F)n2)nn1 [compound 2] | 100 |  |
| CCS(=O)(=O)c1cccnc1-c1ccc(-n2cc(C(F)(F)F)cn2)nn1 [compound 9] | 100 | ≥ 90 |
| CCS(=O)(=O)c1cccnc1-c1ccc(-n2cnc(C(F)(F)F)c2)nn1 [compound 7] | 100 |  |
| CCS(=O)(=O)c1cccnc1-c1ccc(-n2cnc(C(F)(F)F)n2)nn1 [compound 4] | 100 |  |
